From patent US10370436B2, “Anti-pseudomonas Psl binding molecules and uses thereof” (priority 2011, dated 2019)

Legend:
[1] = test system: P. aeruginosa strains PAO1, 33356, 6294, 6077; assay: P. aeruginosa acute pneumonia model, survival; format: in vivo, BALB/c mice
Protocol: FIG. 6 (A-G): Survival rates for animals treated with anti-Psl monoclonal antibodies Cam-003 or WapR-004 in a P. aeruginosa acute pneumonia model. (A-D) Animals were treated with Cam-003 at 45, 15, and 5 mg/kg and R347 at 45 mg/kg or PBS 24 hours prior to intranasal infection with (A) PAO1 (1.6×10^7 CFU), (B) 33356 (3×10^7 CFU), (C) 6294 (7×10^6 CFU), (D) 6077 (1×10^6 CFU). (E-F) Animals were treated with WapR-004 at 5 and 1 mg/kg as indicated followed by infection with 6077 at (E) (8×10^5 CFU), or (F) (6×10^5 CFU). Animals were carefully monitored for survival up to 72 hours (A-D) or for 120 hours (E-F). (G) Animals were treated with Cam-003 at 15 mg/kg or 5 mg/kg, or R347 at 15 mg/kg 24 hours prior to intranasal infection with PAO1 (4.4×10^7 CFU), and Cam-003 at 15 mg/kg 24 hours prior to intranasal infection with PAO1ΔpslA (3×10^7 CFU). In all experiments, PBS and R347 served as negative controls. Results are represented as Kaplan-Meier survival curves; differences in survival were calculated by the Log-rank test for Cam-003 vs. R347. (A) Cam-003 (45 mg/kg—P<0.0001; 15 mg/kg—P=0.0003; 5 mg/kg—P=0.0033). (B) Cam-003 (45 mg/kg—P=0.0012; 15 mg/kg—P=0.0012; 5 mg/kg—P=0.0373). (C) Cam-003 (45 mg/kg—P=0.0007; 15 mg/kg—P=0.0019; 5 mg/kg—P=0.0212). (D) Cam-003 (45 mg/kg—P<0.0001; 15 mg/kg—P<0.0001; 5 mg/kg—P=0.0001). Results are representative of at least two independent experiments. (E) [Cam-003 (5 mg/kg) vs. R347 (5 mg/kg): P=0.02; Cam-003 (1 mg/kg) vs. R347 (5 mg/kg): P=0.4848; WapR-004 (5 mg/kg) vs. R347 (5 mg/kg): P<0.0001; WapR-004 (1 mg/kg) vs. R347 (5 mg/kg): P=0.0886; WapR-004 (5 mg/kg) vs. Cam-003 (5 mg/kg): P=0.0017; WapR-004 (1 mg/kg) vs. Cam-003 (1 mg/kg): P=0.2468; R347 (5 mg/kg) vs. PBS: P=0.6676] (F) [Cam-003 (5 mg/kg) vs. R347 (5 mg/kg): P=0.0004; Cam-003 (1 mg/kg) vs. R347 (5 mg/kg): P<0.0001; WapR-004 (5 mg/kg) vs. R347 (5 mg/kg): P<0.0001; WapR-004 (1 mg/kg) vs. R347 (5 mg/kg): P<0.0001; WapR-004 (5 mg/kg) vs. Cam-003 (5 mg/kg): P=0.0002; WapR-004 (1 mg/kg) vs. Cam-003 (1 mg/kg): P=0.2628; R347 (5 mg/kg) vs. PBS: P=0.6676. (G) Cam-003 (15 mg/kg—P=0.0028; 5 mg/kg—P=0.0028)]. Results are representative of five independent experiments.
Antibodies or PBS were administered 24 hours before infection in each model. P. aeruginosa acute pneumonia, keratitis, and thermal injury infection models were performed as described (DiGiandomenico, A., et al., Proc Natl Acad Sci USA 104, 4624-4629 (2007)), with modifications. In the acute pneumonia model, BALB/c mice (The Jackson Laboratory) were infected with P. aeruginosa strains suspended in a 0.05 ml inoculum. In the thermal injury model, CF-1 mice (Charles River) received a 10% total body surface area burn with a metal brand heated to 92° C. for 10 seconds. Animals were infected subcutaneously with P. aeruginosa strain 6077 at the indicated dose. For organ burden experiments, acute pneumonia was induced in mice followed by harvesting of lungs, spleens, and kidneys 24 hours post-infection for determination of CFU.

[2] = test system: P. aeruginosa PAO10 LPS; assay: Endotoxemia (LPS challenge) model; format: in vivo, C57Bl/6 mice; conditions: control mice dosed with unconjugated mAb
Protocol: In particular, C57Bl/6 mice (10 per group) were dosed i.p. with mAb or PMB-mAb conjugate 6 h prior to challenge with P. aeruginosa PAO10 LPS (Sigma) and D-galactosamine. PMB control was dosed i.p. 2 h prior to challenge at 0.2 mg/kg and typically provides 80-100% protection. Control mice dosed with unconjugated CAM-003 all died within 18 h.
TM conjugates were dosed at 45, 15 and 5 mg/kg.

[3] = test system: P. aeruginosa strain 6294; assay: P. aeruginosa sepsis model; format: in vivo, C57Bl/6 mice
Protocol: C57Bl/6 mice (10 per group) were dosed with mAb or PMB-mAb conjugates i.p (10, 1 and 0.1 mg/kg) 6 h prior to i.p. challenge with LD80-100 dose of P. aeruginosa strain 6294 (4E7 CFU). Data from two studies was combined in this analysis. Survival was monitored over 72 h. Combined results of two studies are shown in FIGS. 21A-C: Most control mice dosed with A7 or buffer died by 24 h. […] Conversely, the conjugates were less protective than CAM-003 at the low dose of 0.1 mg/kg, and protective activity correlated with in vitro OPK activity of the conjugates (WT>SM>DM>TM).

## Cam-003: human IgG1 anti-Psl monoclonal antibody, VH SEQ ID NO: 1 and VL SEQ ID NO: 2
[1]; Psl mutant strain PAO1ΔpslA, FIG. 6G
  survival: Increased survival was not observed
[1]; larger infectious inoculum of 6077 (1.07×10^6), titrated antibody dose, FIG. 9E
  activity versus Cam-003-TM: superior to Cam-003-TM
[1]; strain 6077, 5 mg/kg, FIG. 6D
  survival: 90%
[1]; strain 33356, 5 mg/kg, FIG. 6B
  survival: 80%
[1]; strain PAO1, at 120 hours, FIG. 6G
  survival: 100%
[1]; strains 33356 and 6077, 45 and 15 mg/kg, FIGS. 6B, 6D
  protection from challenge: complete protection
[1]; strains PAO1 and 6294, 45, 15, 5 mg/kg 24 hours prior to intranasal infection, FIGS. 6A, 6C
  survival: significant concentration-dependent survival
[2]
  time within which all mice died: ≤ 18 h
[3]; 10, 1 and 0.1 mg/kg
  dose relation of protective activity: inversely correlated with dose
[3]; 10, 1 and 0.1 mg/kg i.p. 6 h prior to i.p. challenge, survival over 72 h, FIGS. 21A-C
  protection: 50-90%
